From patent US12227488B2, “Small molecule degraders of Helios and methods of use” (DANA-FARBER CANCER INSTITUTE, INC., priority 2018, dated 2025)

Tests used:
[1] = target: T1, CRBN and Helios (IKZF2) (Homo sapiens, UniProt Q96SW2+Q9UKS7); experiment: TR-FRET dimerization assay (CRBN-IKZF2 ternary complex formation); format: binding; details: n=1
T1 construct: His (N); Strep (N)
Description: A focused library of imide analogs was synthesized and assessed for their ability to induce dimerization between CRBN and Helios in a time-resolved fluorescence energy transfer (TR-FRET) assay (FIG. 1A).
Prior to TR-FRET measurements being conducted, the reactions were incubated for 15 min at rt. […] The TR-FRET signal of each data point was extracted by calculating the 520/490 nm ratios. Data from single measurements (n=1), each calculated as an average of at least three technical replicates per well per experiment are presented in Table 1.
BODIPY-labeled CRBN in complex with Damage Specific DNA Binding Protein 1 (DDB1) harboring an internal deletion of the flexible BPB propeller (DDB1AB-CRBN) and in vitro biotinylated IKZF2 were treated with increasing concentrations of the indicated compounds in the presence of tracer amounts of Terbium-Streptavidin (Tb-SA). Compound-induced recruitment of IKZF2 to CRBN was quantified following the 520/490 TR-FRET ratio using a PHERAstar® plate reader (BMG) utilizing two synchronized PMTs to reduce background.

[2] = tested on: IKZF2; experiment: Cellular degradation assay, eGFP-IKZF2Δ fusion with mCherry reporter in Flp-In 293 cells; format: cell-based; details: 5 h incubation, n=1
Description: (§1) IKZF1Δ, IKZF2Δ, GSPT1 and SALL4 ZnF1-2 were subcloned into mammalian pcDNA5/FRT Vector (Ampicillin and Hygromycin B resistant) modified to contain MCS-eGFP-P2A-mCherry. […] Following 2-3 passage cycle, FACS (FACSAria™ II, BD) was used to enrich for cells expressing eGFP and mCherry. Cells stably expressing the IKZF1Δ, IKZF2Δ, GSPT1 or SALL4 Znf1-2 GFP fusions with mCherry reporter were seeded at 30-50% confluency in 384-well plates with 50 μL FluoroBrite™ DMEM media (Thermo Fisher Scientific, A18967) containing 10% FBS per well a day before compound treatment. Compound titrations were dispensed using a D300e Digital Dispenser (HP), normalized to 0.5% DMSO, and incubated with cells for 5 hours.
(§2) The resulting images were analyzed using CellProfiler™. A series of image analysis steps (‘image analysis pipeline’) was constructed. First, the red and green channels were aligned and cropped to target the middle of each well (to avoid analysis of heavily clumped cells at the edges), and a background illumination function was calculated for both red and green channels of each well individually and subtracted to correct for illumination variations across the 384-well plate from various sources of error. An additional step was then applied to the green channel to suppress the analysis of large auto fluorescent artifacts and enhance the analysis of cell specific fluorescence by way of selecting for objects under a given size, 30 A.U., and with a given shape, speckles. mCherry-positive cells were then identified in the red channel filtering for objects between 8-60 pixels in diameter and using intensity to distinguish between clumped objects. The green channel was then segmented into GFP positive and negative areas and objects were labeled as GFP positive if at least 40% of it overlapped with a GFP positive area. The fraction of GFP-positive cells/mCherry-positive cells in each well was then calculated, and the green and red images were rescaled for visualization.
(§3) The degradation assay was performed as described above. […] Degradation was measured after 5 h of compound treatment and the concentrations that lead to half degradation at 5 h (DC50,5 h) were calculated using the nonlinear fit variable slope model (GraphPad Software).

[3] = target: T2, IKZF1 (Homo sapiens, UniProt Q13422); experiment: Cellular degradation assay, eGFP-IKZF1Δ fusion with mCherry reporter in Flp-In 293 cells; format: cell-based; details: 5 h incubation, n=1
T2 construct: expressed in transfected cells; host or cells: Flp-In 293
T2 sequence (Q13422 83-213 isoform Q13422-7 limits assumed): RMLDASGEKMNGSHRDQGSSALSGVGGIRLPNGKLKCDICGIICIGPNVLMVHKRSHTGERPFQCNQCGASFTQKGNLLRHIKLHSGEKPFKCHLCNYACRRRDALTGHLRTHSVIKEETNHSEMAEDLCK
T2 sequence (Q96SW2 whole entry partner, the tested form may be a part): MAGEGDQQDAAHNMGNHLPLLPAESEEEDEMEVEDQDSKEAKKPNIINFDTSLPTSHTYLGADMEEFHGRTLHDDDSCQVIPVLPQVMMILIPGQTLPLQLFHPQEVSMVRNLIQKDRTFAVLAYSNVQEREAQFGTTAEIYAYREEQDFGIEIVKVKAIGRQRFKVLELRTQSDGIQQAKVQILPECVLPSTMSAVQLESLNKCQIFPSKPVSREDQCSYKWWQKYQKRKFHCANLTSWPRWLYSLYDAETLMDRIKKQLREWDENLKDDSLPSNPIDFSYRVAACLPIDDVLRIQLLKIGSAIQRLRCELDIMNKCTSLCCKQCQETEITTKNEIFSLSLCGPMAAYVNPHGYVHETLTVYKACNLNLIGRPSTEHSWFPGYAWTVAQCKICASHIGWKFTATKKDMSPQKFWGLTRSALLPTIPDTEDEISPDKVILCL
T2 sequence (Q16531 2-1140 partner limits assumed): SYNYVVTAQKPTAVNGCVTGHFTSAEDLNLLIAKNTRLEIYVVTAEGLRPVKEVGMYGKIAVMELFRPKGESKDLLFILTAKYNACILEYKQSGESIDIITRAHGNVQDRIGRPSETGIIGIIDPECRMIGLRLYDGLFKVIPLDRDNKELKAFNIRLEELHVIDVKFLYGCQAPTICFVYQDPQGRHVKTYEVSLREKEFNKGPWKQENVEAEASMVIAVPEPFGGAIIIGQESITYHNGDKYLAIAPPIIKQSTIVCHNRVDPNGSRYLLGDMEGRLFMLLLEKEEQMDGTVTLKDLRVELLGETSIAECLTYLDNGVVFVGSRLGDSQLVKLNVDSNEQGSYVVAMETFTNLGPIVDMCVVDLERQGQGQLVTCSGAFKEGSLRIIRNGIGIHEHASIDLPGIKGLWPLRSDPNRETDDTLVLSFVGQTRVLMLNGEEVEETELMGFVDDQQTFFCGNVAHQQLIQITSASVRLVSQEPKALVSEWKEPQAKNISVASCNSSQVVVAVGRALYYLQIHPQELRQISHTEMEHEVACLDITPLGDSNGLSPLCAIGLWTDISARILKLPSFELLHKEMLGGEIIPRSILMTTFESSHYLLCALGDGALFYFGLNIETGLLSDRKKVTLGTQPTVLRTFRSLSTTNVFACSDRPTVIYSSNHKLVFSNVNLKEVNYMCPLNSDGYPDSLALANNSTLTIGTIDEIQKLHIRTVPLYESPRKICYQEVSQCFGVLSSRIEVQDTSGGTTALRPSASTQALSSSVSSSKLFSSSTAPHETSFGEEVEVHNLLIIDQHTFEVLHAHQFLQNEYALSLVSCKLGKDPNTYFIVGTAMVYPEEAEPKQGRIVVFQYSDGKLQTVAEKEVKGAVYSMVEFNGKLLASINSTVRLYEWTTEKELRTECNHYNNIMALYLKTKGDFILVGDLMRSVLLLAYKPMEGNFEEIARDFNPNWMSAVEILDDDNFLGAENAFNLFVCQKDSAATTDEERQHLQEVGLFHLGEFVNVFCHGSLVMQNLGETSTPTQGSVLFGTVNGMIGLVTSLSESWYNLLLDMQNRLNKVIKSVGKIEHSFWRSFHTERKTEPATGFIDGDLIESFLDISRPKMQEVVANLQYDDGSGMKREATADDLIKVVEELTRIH
Description: as §1, §2, §3

[4] = compound concentration 6.6667E−05
[5] = compound concentration 6.6667E−06
[6] = compound concentration 6.6667E−07 (667 nM)
[7] = compound concentration 2.00E−05
[8] = compound concentration 2.00E−06
[9] = compound concentration 2.00E−07

T1 sequence (Q96SW2 whole entry): as the sequence (Q96SW2 whole entry partner, the tested form may be a part) above
T1 sequence (Q9UKS7 whole entry): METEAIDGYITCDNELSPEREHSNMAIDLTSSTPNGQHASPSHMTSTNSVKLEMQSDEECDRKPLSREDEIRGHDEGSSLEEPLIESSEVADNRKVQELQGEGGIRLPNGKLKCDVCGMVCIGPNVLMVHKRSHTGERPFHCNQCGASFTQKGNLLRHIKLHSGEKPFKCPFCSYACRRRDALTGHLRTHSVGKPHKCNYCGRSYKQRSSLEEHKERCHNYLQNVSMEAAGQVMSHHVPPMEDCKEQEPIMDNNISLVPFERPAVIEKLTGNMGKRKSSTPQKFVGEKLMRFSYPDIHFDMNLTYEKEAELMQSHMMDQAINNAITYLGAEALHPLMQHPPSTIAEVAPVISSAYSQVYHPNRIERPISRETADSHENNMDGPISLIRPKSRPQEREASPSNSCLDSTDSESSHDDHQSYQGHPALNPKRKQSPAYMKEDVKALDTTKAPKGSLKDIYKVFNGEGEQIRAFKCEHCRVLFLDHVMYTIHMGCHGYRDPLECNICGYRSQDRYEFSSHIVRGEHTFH

Compound	TR-FRET-IKZF2 (Normalized to CC-885) [1, 4]	TR-FRET-IKZF2 (Normalized to CC-885) [1, 5]	TR-FRET-IKZF2 (Normalized to CC-885) [1, 6]	IKZF2 GFP/RFP Relative Abundance [2, 7]	IKZF2 GFP/RFP Relative Abundance [2, 8]	IKZF2 GFP/RFP Relative Abundance [2, 9]	IKZF1 GFP/RFP Relative Abundance [3, 7]	IKZF1 GFP/RFP Relative Abundance [3, 8]	IKZF1 GFP/RFP Relative Abundance [3, 9]
Cc1ccc(NC(=O)NCc2cc(NC(=O)N(C)C)cc(NC3=CC(=O)N(C4CCC(=O)NC4=O)C3=O)c2)cc1Cl (stereo not drawn) [Compound 112, 3-(3-((3-(3-chloro-4-methylphenyl)ureido)methyl)-5-((1-(2,6-dioxopiperidin-3-yl)-2,5-dioxo-2,5-dihydro-1H-pyrrol-3-yl)amino)phenyl)-1,1-dimethylurea]	0.048	0.035	0.035	1.081	1.047	1.034	0.726	0.949	1.002
Cc1ccc(CNC(=O)Cc2cccc(NC3=CC(=O)N(C4CCC(=O)NC4=O)C3=O)c2)cc1Cl (stereo not drawn) [Compound 123, N-(3-chloro-4-methylbenzyl)-2-(3-((1-(2,6-dioxopiperidin-3-yl)-2,5-dioxo-2,5-dihydro-1H-pyrrol-3-yl)amino)phenyl)acetamide]	1.234	1.087	0.960	0.065	0.093	0.078	0.083	0.057	0.092
Cc1ccc(NC(=O)NC(CC(=O)N(C)C)c2cccc(NC3=CC(=O)N(C4CCC(=O)NC4=O)C3=O)c2)cc1Cl (stereo not drawn) [Compound 76, 3-(3-(3-chloro-4-methylphenyl)ureido)-3-(3-((1-(2,6-dioxopiperidin-3-yl)-2,5-dioxo-2,5-dihydro-1H-pyrrol-3-yl)amino)phenyl)-N,N-dimethylpropanamide]	1.961	1.657	1.577	0.027	0.036	0.032	0.103	0.069	0.107
Cc1ccc(NC(=O)NCc2cc(NC3=CC(=O)N(C4CCC(=O)NC4=O)C3=O)ccc2OC(=O)N(C)C)cc1Cl (stereo not drawn) [Compound 95, 2-((3-(3-chloro-4-methylphenyl)ureido)methyl)-4-((1-(2,6-dioxopiperidin-3-yl)-2,5-dioxo-2,5-dihydro-1H-pyrrol-3-yl)amino)phenyl Dimethylcarbamate]	0.124	0.109	0.094	1.070	1.058	1.029	0.944	0.904	0.960
Cc1ccc(CNC(=O)c2cccc(NC3=CC(=O)N(C4CCC(=O)NC4=O)C3=O)c2)cc1Cl (stereo not drawn) [Compound 122, N-(3-chloro-4-methylbenzyl)-3-((1-(2,6-dioxopiperidin-3-yl)-2,5-dioxo-2,5-dihydro-1H-pyrrol-3-yl)amino)benzamide]	0.715	0.628	0.469	0.738	0.789	0.833	0.076	0.088	0.096
Cc1cc(CNC(=O)NCc2cccc(NC3=CC(=O)N(C4CCC(=O)NC4=O)C3=O)c2)ccc1Cl (stereo not drawn) [Compound 82, 1-(4-chloro-3-methylbenzyl)-3-(3-((1-(2,6-dioxopiperidin-3-yl)-2,5-dioxo-2,5-dihydro-1H-pyrrol-3-yl)amino)benzyl)urea]	0.999	0.975	0.838	0.158	0.220	0.293	0.085	0.085	0.069
